Measured values: patent US12344610B2, “APOL1 inhibitors and methods of use” (Maze Therapeutics, Inc., priority 2022, dated 2025)

Legend:
Format in all cases: cell-based
[1] = tested on: HEK293 cells overexpressing APOL1 G2; experiment: APOL1 G2 HEK293 cell rescue assay (reversal of cell death caused by overexpression of APOL1); conditions: Homo sapiens, HEK293, HEK293 overexpressing APOL1 G2; geometric mean of at least 2 assay runs; † = single assay run
Summary of the method: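 Each compound tested in duplicate wells on one plate per run, with values usually the geometric mean across at least two runs on different days, occasionally from one run only. Read-out: concentration giving half-maximal rescue of APOL1 G2 overexpression-induced death of HEK293 cells.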

[2] = tested on: Trypanosoma brucei Lister 427 VSG221 with APOL1 G0 recombinant protein; experiment: APOL1 G0 trypanosome cell rescue assay (Example B5); conditions: Trypanosoma brucei, 20 h, read-out: APOL1 G0 Trypanosome Rescue EC50, Trypanosoma brucei Lister 427 VSG221 with APOL1 G0 recombinant protein, 20 hours, CellTiter-Glo; geometric mean of at least 2 assay runs; † = single assay run
Summary of the method: (§1)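 Viability read by CellTiter-Glo luminescence after 20 h co-incubation (37° C, 5% CO2) of 250 trypanosomes/well in modified HMI-9 with test compound (duplicate 11-point, 2-fold dilutions, 0.4% DMSO) and APOL1 protein, […]. Protein: mature residues 28-398, E. coli inclusion-body refolded, tag cleaved, in DDM.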

[3] = tested on: Trypanosoma brucei Lister 427 VSG221 with APOL1 G1 recombinant protein; experiment: APOL1 G1 trypanosome cell rescue assay (Example B5); conditions: Trypanosoma brucei, 20 h, read-out: APOL1 G1 Trypanosome Rescue EC50, Trypanosoma brucei Lister 427 VSG221 with APOL1 G1 recombinant protein, 20 hours, CellTiter-Glo; geometric mean of at least 2 assay runs; † = single assay run
Summary of the method: as §1

[4] = tested on: Trypanosoma brucei Lister 427 VSG221 with APOL1 G2 recombinant protein; experiment: APOL1 G2 trypanosome cell rescue assay (Example B5); conditions: Trypanosoma brucei, 20 h, read-out: APOL1 G2 Trypanosome Rescue EC50, Trypanosoma brucei Lister 427 VSG221 with APOL1 G2 recombinant protein, 20 hours, CellTiter-Glo; geometric mean of at least 2 assay runs; † = single assay run
Summary of the method: as §1

Structure (SMILES) | EC50 [1] [nM] | EC50 [2] [nM] | EC50 [3] [nM] | EC50 [4] [nM]
CNC(=O)c1ccc(OCCN2CCC3(CC2)C(=O)Nc2ccc(Cl)cc23)cc1F [Compound 229, 4-(2-{5-chloro-2-oxo-1,2-dihydrospiro[indole-3,4′-piperidin]-1′-yl}ethoxy)-2-fluoro-N-methylbenzamide] | 128 | 417 | 778 | 186
CN(C)C(=O)c1ccc(OCCN2CCC3(CC2)C(=O)Nc2ccc(Cl)cc23)cc1F [Compound 230, 4-(2-{5-chloro-2-oxo-1,2-dihydrospiro[indole-3,4′-piperidin]-1′-yl}ethoxy)-2-fluoro-N,N-dimethylbenzamide] | 98.7 | 427 | 801 | 209
O=C(c1ccc(OCCN2CCC3(CC2)C(=O)Nc2ccc(Cl)cc23)cc1F)N1CCOCC1 [Compound 231, 5-chloro-1′-{2-[3-fluoro-4-(morpholine-4-carbonyl)phenoxy]ethyl}-1,2-dihydrospiro[indole-3,4′-piperidin]-2-one] | 42 | 135 | 231 | 66.7
O=C(c1ccc(OCCN2CCC3(CC2)C(=O)Nc2ccc(Cl)cc23)cc1F)N1CCS(=O)(=O)CC1 [Compound 232, 4-[4-(2-{5-chloro-2-oxo-1,2-dihydrospiro[indole-3,4′-piperidin]-1′-yl}ethoxy)-2-fluorobenzoyl]-1λ^6-thiomorpholine-1,1-dione] | 39.2 | 97.6 | 157 | 41.6
CS(=O)(=O)C1CN(C(=O)c2ccc(OCCN3CCC4(CC3)C(=O)Nc3ccc(Cl)cc34)cc2F)C1 [Compound 233, 5-chloro-1′-{2-[3-fluoro-4-(3-methanesulfonyl-azetidine-1-carbonyl)phenoxy]ethyl}-1,2-dihydrospiro[indole-3,4′-piperidin]-2-one] | 57.7 | 81.7 | 134 | 41.1
O=C(c1ccc(OCCN2CCC3(CC2)C(=O)Nc2ccc(Cl)cc23)cc1F)N1CCC1 [Compound 234, 1′-{2-[4-(azetidine-1-carbonyl)-3-fluorophenoxy]ethyl}-5-chloro-1,2-dihydrospiro[indole-3,4′-piperidin]-2-one] | 80.3 | 272 | 475 | 146
O=C(c1ccc(OCCN2CCC3(CC2)C(=O)Nc2ccc(Cl)cc23)cc1F)N1CC(O)C1 [Compound 235, 5-chloro-1′-{2-[3-fluoro-4-(3-hydroxyazetidine-1-carbonyl)phenoxy]ethyl}-1,2-dihydrospiro[indole-3,4′-piperidin]-2-one] | 59.8 | 270 | 452 | 132
NC1CN(C(=O)c2ccc(OCCN3CCC4(CC3)C(=O)Nc3ccc(Cl)cc34)cc2F)C1 [Compound 236, 1′-{2-[4-(3-aminoazetidine-1-carbonyl)-3-fluorophenoxy]ethyl}-5-chloro-1,2-dihydrospiro[indole-3,4′-piperidin]-2-one] | 45 | 766 | 866 | 397
CS(=O)(=O)NC1CN(C(=O)c2ccc(OCCN3CCC4(CC3)C(=O)Nc3ccc(Cl)cc34)cc2F)C1 [Compound 237, N-{1-[4-(2-{5-chloro-2-oxo-1,2-dihydrospiro[indole-3,4′-piperidin]-1′-yl}ethoxy)-2-fluorobenzoyl]azetidin-3-yl} methanesulfonamide] | 238 | 132 | 196 | 57.2
N#Cc1ccc2c(c1)C1(CCN(CCOc3ccc(C(N)=O)c(F)c3)CC1)C(=O)N2 [Compound 238, 4-(2-{5-cyano-2-oxo-1,2-dihydrospiro[indole-3,4′-piperidin]-1′-yl}ethoxy)-2-fluorobenzamide] | 85.2 | 1590 | > 4000 | 763
O=C(c1ccc(OCCN2CCC3(CC2)C(=O)Nc2ccc(Cl)cc23)cc1F)N1CC2(C1)CS(=O)(=O)C2 [Compound 239, 6-[4-(2-{5-chloro-2-oxo-1,2-dihydrospiro[indole-3,4′-piperidin]-1′-yl}ethoxy)-2-fluorobenzoyl]-2λ^6-thia-6-azaspiro[3.3]heptane-2,2-dione] | 77.9 | 40 | 48.8 | 14.8
Cc1n[nH]cc1-c1ccc(OCCN2CCC3(CC2)C(=O)Nc2ccc(Cl)cc23)cc1 [Compound 244, 5-chloro-1′-{2-[4-(5-methyl-1H-pyrazol-4-yl)phenoxy]ethyl}-1,2-dihydrospiro[indole-3,4′-piperidin]-2-one] | 70.4 | 141 | 151 | 49.3
CNC(=O)N1CCc2cc(OCCN3CCC4(CC3)C(=O)Nc3ccc(Cl)cc34)ccc2C1 [Compound 245, 6-(2-{5-chloro-2-oxo-1,2-dihydrospiro[indole-3,4′-piperidin]-1′-yl}ethoxy)-N-methyl-1,2,3,4-tetrahydroisoquinoline-2-carboxamide] | 139 | 265 | 379 | 102
Cn1c(=O)[nH]c2cc(OCCN3CCC4(CC3)C(=O)Nc3ccc(Cl)cc34)cnc21 [Compound 247, 5-chloro-1′-[2-({3-methyl-2-oxo-1H,2H,3H-imidazo[4,5-b]pyridin-6-yl}oxy)ethyl]-1,2-dihydrospiro[indole-3,4′-piperidin]-2-one] | 92 | 186 | 246 | 81
O=C1Nc2ccc(Cl)cc2C12CCN(CCOc1ccc(S(=O)(=O)C3(CO)CC3)nc1)CC2 [Compound 248, 5-chloro-1′-{2-[(6-{[1-(hydroxymethyl)cyclopropyl]sulfonyl}pyridin-3-yl)oxy]ethyl}-1,2-dihydrospiro[indole-3,4′-piperidin]-2-one] | 58.4 | 86.2 | 126 | 37.9
NC(=O)c1ccc(OCCN2CCC3(CC2)C(=O)Nc2ccc(Cl)cc23)cc1C(F)F [Compound 249, 4-(2-{5-chloro-2-oxo-1,2-dihydrospiro[indole-3,4′-piperidin]-1′-yl}ethoxy)-2-(difluoromethyl)benzamide] | 26.8 | 53.8 | 73.8 | 22.1
N#Cc1ccc2c(c1)C1(CCN(CCOc3ccc(C(N)=O)c(C(F)F)c3)CC1)C(=O)N2 [Compound 250, 4-(2-{5-cyano-2-oxo-1,2-dihydrospiro[indole-3,4′-piperidin]-1′-yl}ethoxy)-2-(difluoromethyl)benzamide] | 49.2 | 445 | 678 | 194
CN1C(=O)C2(CCN(CCOc3ccc(C4(S(C)(=O)=O)COC4)cc3)CC2)c2cc(C#N)ccc21 [Compound 251, 1′-{2-[4-(3-methanesulfonyloxetan-3-yl)phenoxy]ethyl}-1-methyl-2-oxo-1,2-dihydrospiro[indole-3,4′-piperidine]-5-carbonitrile] | 125 | 903 | 1120 | 240
CN(C)C(=O)C1(c2ccc(OCCN3CCC4(CC3)C(=O)Nc3ccc(C#N)cc34)cc2)COC1 [Compound 254, 3-[4-(2-{5-cyano-2-oxo-1,2-dihydrospiro[indole-3,4′-piperidin]-1′-yl}ethoxy)phenyl]-N,N-dimethyloxetane-3-carboxamide] | 175 | 695 | 951 | 252
CNC(=O)C1(c2ccc(OCCN3CCC4(CC3)C(=O)Nc3ccc(C#N)cc34)cc2)COC1 [Compound 255, 3-[4-(2-{5-cyano-2-oxo-1,2-dihydrospiro[indole-3,4′-piperidin]-1′-yl}ethoxy)phenyl]-N-methyloxetane-3-carboxamide] | 353 | 1380 | 2920 | 575
O=C(c1c(F)cc(OCCN2CCC3(CC2)C(=O)Nc2ccc(Cl)cc23)cc1F)N1CCS(=O)(=O)CC1 [Compound 259, 4-[4-(2-{5-chloro-2-oxo-1,2-dihydrospiro[indole-3,4′-piperidin]-1′-yl}ethoxy)-2,6-difluorobenzoyl]-1λ^6-thiomorpholine-1,1-dione] | 37.5 | 68 | 92.2 | 25.5
CN1C(=O)C2(CCN(CCOc3cc(F)c(C(=O)N4CCS(=O)(=O)CC4)c(F)c3)CC2)c2cc(C#N)ccc21 [Compound 260, 1′-{2-[4-(1,1-dioxo-1λ^6-thiomorpholine-4-carbonyl)-3,5-difluorophenoxy]ethyl}-1-methyl-2-oxo-1,2-dihydrospiro[indole-3,4′-piperidine]-5-carbonitrile] | 119 | 274 | 397 | 110
